The values below come from ChEMBL document CHEMBL1141073, “E-ring modified steroids as novel potent inhibitors of 17beta-hydroxysteroid dehydrogenase type 1” (J Med Chem, 2005).

Type in all cases: cell-based
The target in assay [1] is T1, 17-beta-hydroxysteroid dehydrogenase type 2 (Homo sapiens) (UniProt P37059).
T1 sequence (whole entry): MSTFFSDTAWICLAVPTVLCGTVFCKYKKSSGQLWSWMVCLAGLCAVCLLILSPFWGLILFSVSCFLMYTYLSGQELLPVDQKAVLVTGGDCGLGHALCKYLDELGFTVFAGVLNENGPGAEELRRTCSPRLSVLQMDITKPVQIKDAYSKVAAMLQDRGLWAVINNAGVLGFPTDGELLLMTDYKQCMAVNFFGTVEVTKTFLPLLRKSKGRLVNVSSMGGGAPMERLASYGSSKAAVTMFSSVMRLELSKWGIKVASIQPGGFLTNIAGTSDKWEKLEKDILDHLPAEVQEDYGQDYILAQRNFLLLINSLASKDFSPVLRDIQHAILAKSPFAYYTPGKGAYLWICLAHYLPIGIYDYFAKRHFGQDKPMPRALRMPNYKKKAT
Kind of assay: Inhibitory activity at 10 uM against 17-beta-hydroxysteroid dehydrogenase type 2 in MDAMB-231 human breast cancer cells using 2 nM [3H]estradiol. Conditions: Cancer cell lines.

Assay [2] concerns the target T2, 17-beta-hydroxysteroid dehydrogenase type 1 (Homo sapiens) (UniProt P14061).
T2 sequence (whole entry): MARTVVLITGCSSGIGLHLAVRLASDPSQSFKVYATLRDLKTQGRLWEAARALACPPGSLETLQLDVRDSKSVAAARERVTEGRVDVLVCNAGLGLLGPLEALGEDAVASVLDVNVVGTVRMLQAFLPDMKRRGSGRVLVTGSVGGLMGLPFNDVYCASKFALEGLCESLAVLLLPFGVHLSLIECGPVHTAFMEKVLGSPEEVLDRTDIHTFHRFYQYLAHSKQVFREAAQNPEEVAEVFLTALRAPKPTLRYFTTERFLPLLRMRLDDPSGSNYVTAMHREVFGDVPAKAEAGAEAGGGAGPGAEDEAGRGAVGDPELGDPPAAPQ
The assay is described as follows: Inhibitory activity at 10 uM against 17-beta-hydroxysteroid dehydrogenase type 1 expressed in T47D human breast cancer cells using 2 nM [3H]estrone.

The target in assay [3] is T3, 17-beta-hydroxysteroid dehydrogenase type 1 (Homo sapiens, UniProt P14061).
T3 sequence (P14061 whole entry): T2 sequence (whole entry)
The assay is described as follows: Inhibition of 17-beta-hydroxysteroid dehydrogenase type 1 expressed in T47D human breast cancer cells using 2 nM [3H]estrone.

By inhibition is commonly meant the share of the control response that was lost under treatment. Higher therefore signals a strong effect. Consider `C[C@]12CCC3c4ccc(O)cc4CCC3C1Cc1c2n[nH]c1C(=O)NCc1cccnc1` (stereo not given in full), for which the figures for the inhibition in assay [1] and in assay [2] were 28% and 92%, respectively.
Taken in the same sequence, the figures for `Cc1cnc(CNC(=O)c2[nH]nc3c2CC2C4CCc5cc(O)ccc5C4CC[C@]32C)cn1` (stereo not given in full) were 61% and 80%.
Regarding `CC1(C)C[C@H]2C3CCc4cc(O)ccc4[C@H]3CC[C@]2(C)C1=O` (single isomer, unassigned), the values for the inhibition in assay [1] and in assay [2] were 35% and 95%, respectively.
`CC(C)Cn1ncc2c1[C@@]1(C)CCC3c4ccc(O)cc4CCC3C1C2` (stereo not given in full): the inhibition in assay [1] was 44%; in assay [2] it was 70%.
Taken in the same sequence, the figures for `CCN(C)C(=O)c1[nH]nc2c1CC1C3CCc4cc(O)ccc4C3CC[C@]21C` (stereo not given in full) were 6% and 88%.
The like results for `CNC(=O)c1[nH]nc2c1CC1C3CCc4cc(O)ccc4C3CC[C@]21C` (stereo not given in full) were, in that order, 14% and 62%.
The like results for `C[C@]12CCC3c4ccc(O)cc4CCC3C1Cc1c2n[nH]c1C(=O)NCCc1cccnc1` (stereo not given in full) were, in that order, 3% and 99%.
In the case of `COCCn1cc2c(n1)[C@@]1(C)CCC3c4ccc(O)cc4CCC3C1C2` (stereo not given in full), the inhibition in assay [1] turned out to be 48%; in assay [2], 95%.
On to `CC(C)Cn1cc2c(n1)[C@@]1(C)CCC3c4ccc(O)cc4CCC3C1C2` (stereo not given in full), for which the results for the inhibition in assay [1] and in assay [2] were 61% and 77%, respectively.
The like results for `C[C@]12CCC3c4ccc(O)cc4CCC3C1Cc1cn(CCC#N)nc12` (stereo not given in full) were, in that order, 44% and 95%.
The like results for `CN1CCN(CNC(=O)c2[nH]nc3c2CC2C4CCc5cc(O)ccc5C4CC[C@]32C)CC1` (stereo not given in full) were, in that order, 1% and 50%.
In general, IC50 refers to the point on the concentration scale where inhibition reaches its midpoint. `C[C@]12CCC3c4ccc(O)cc4CCC3C1CC(C=O)=C2O` (stereo not given in full): the results for the inhibition in assay [1] and in assay [2] were 15% and 97%, respectively. In assay [3], this compound registered an IC50 of 110 nM.
For the compound `C[C@]12CCC3c4ccc(O)cc4CCC3C1Cc1cccnc12` (stereo not given in full), the inhibition in assay [1] came to 34%; in assay [2], 78%.
As for `C[C@]12CCC3c4ccc(O)cc4CCC3C1Cc1c2n[nH]c1C(=O)NCc1ccccn1` (stereo not given in full), the values for the inhibition in assay [1] and in assay [2] were 9% and 93%, respectively.
Regarding `Cn1ncc2c1[C@@]1(C)CCC3c4ccc(O)cc4CCC3C1C2` (stereo not given in full), the inhibition in assay [1] was determined as 32%; in assay [2], 43%.
Turning to `C[C@]12CCC3c4ccc(O)cc4CCC3C1Cc1c(CO)n[nH]c12` (stereo not given in full), the inhibition stood at 1% in assay [1] and 94% in assay [2].
On to `Cn1cccc1CNC(=O)c1[nH]nc2c1CC1C3CCc4cc(O)ccc4C3CC[C@]21C` (stereo not given in full), for which the inhibition in assay [1] stood at 4%; in assay [2], 89%.
Regarding `COC(=O)Cn1ncc2c1[C@@]1(C)CCC3c4ccc(O)cc4CCC3C1C2` (stereo not given in full), the inhibition in assay [1] worked out at 30%; in assay [2] it was 79%.
With `C[C@]12CCC3c4ccc(O)cc4CCC3C1Cc1c2n[nH]c1C(=O)O` (stereo not given in full), the results for the inhibition in assay [1] and in assay [2] were 6% and 32%, respectively.
On to `C[C@]12CC[C@@H]3c4ccc(O)cc4CCC3[C@@H]1C/C(=N/O)C2=O` (single isomer, unassigned), for which the inhibition in assay [1] was found to be 5%; in assay [2] it was 95%. The half-maximal inhibitory concentration (IC50) in assay [3] was found to be 1100 nM.
In the case of `C[C@]12CCC3c4ccc(O)cc4CCC3C1Cc1c2n[nH]c1C(F)(F)F` (stereo not given in full), the values for the inhibition in assay [1] and in assay [2] were 36% and 75%, respectively.
With `COC(=O)Cn1cc2c(n1)[C@@]1(C)CCC3c4ccc(O)cc4CCC3C1C2` (stereo not given in full), the inhibition in assay [1] was found to be 19%; in assay [2], 95%.
On to `CCOC(=O)c1[nH]nc2c1CC1C3CCc4cc(O)ccc4C3CC[C@]21C` (stereo not given in full), for which the inhibition worked out at 7% in assay [1] and 94% in assay [2].
Taken in the same sequence, the figures for `C[C@]12CCC3c4ccc(O)cc4CCC3C1CC(C(=O)C(F)(F)F)=C2O` (stereo not given in full) were 1.5% and 78%.
Consider `CCOC(=O)C(=O)C1=C(O)[C@@]2(C)CCC3c4ccc(O)cc4CCC3C2C1` (stereo not given in full), for which the inhibition came out at 7% in assay [1] and 75% in assay [2].
As for `CC1(C#N)C[C@H]2C3CCc4cc(O)ccc4[C@H]3CC[C@]2(C)C1=O` (single isomer, unassigned), the values for the inhibition in assay [1] and in assay [2] were 12% and 85%, respectively.
Regarding `COCCn1ncc2c1[C@@]1(C)CCC3c4ccc(O)cc4CCC3C1C2` (stereo not given in full), the inhibition worked out at 55% in assay [1] and 83% in assay [2].
On to `CC(C)NC(=O)c1[nH]nc2c1CC1C3CCc4cc(O)ccc4C3CC[C@]21C` (stereo not given in full), for which the inhibition in assay [1] was determined as 0%; in assay [2], 57%.
Taken in the same sequence, the figures for `C[C@]12CC[C@@H]3c4ccc(O)cc4CCC3[C@@H]1CC(=N/O)/C2=N\O` (single isomer, unassigned) were 2% and 55%.
Turning to `C[C@]12CCC3c4ccc(O)cc4CCC3C1Cc1c[nH]nc12` (stereo not given in full), the inhibition in assay [1] was 32%; in assay [2], 97%. The compound also registered an IC50 in assay [3] of 180 nM.
Take `Cn1cc2c(n1)[C@@]1(C)CCC3c4ccc(O)cc4CCC3C1C2` (stereo not given in full): the inhibition in assay [1] was determined as 24%; in assay [2], 94%.
As to `C[C@]12CC[C@@H]3c4ccc(O)cc4CCC3[C@@H]1CC(C#N)C2=O` (single isomer, unassigned), the figures for the inhibition in assay [1] and in assay [2] were 17% and 77%, respectively. Moreover, the IC50 in assay [3] was 10000 nM.
As for `C[C@]12CCC3c4ccc(O)cc4CCC3C1Cc1c2n[nH]c1C(=O)NCC1CCCO1` (stereo not given in full), the inhibition is 4% in assay [1] and 87% in assay [2].
